“And” between values parts separate entries of the source, which are not always exact repeats. Equal entries are not always repeated.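 These data come from cells grown in 96-well plates and exposed to compound for 48 hours at five concentrations. GI50 is the concentration that inhibits growth by half. TGI: concentration producing complete growth inhibition.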
Experiments:
Test in all cases: NCI anticancer screen, dose series, 48 h
OVCAR-4 ovarian = system: OVCAR-4 ovarian
MALME-3M melanoma = system: MALME-3M melanoma
UACC-257 melanoma = system: UACC-257 melanoma
HCT-15 colon = system: HCT-15 colon
HOP-92 NSCLC = system: HOP-92 NSCLC
UACC-62 melanoma = system: UACC-62 melanoma
SK-MEL-28 melanoma = system: SK-MEL-28 melanoma
CAKI-1 renal = system: CAKI-1 renal
NCI/ADR-RES ovarian = system: NCI/ADR-RES ovarian
A549 NSCLC = system: A549 NSCLC

SMILES | TGI (OVCAR-4 ovarian) [µM] | TGI (MALME-3M melanoma) [µM] | TGI (UACC-257 melanoma) [µM] | TGI (HCT-15 colon) | TGI (HOP-92 NSCLC) [µM] | TGI (UACC-62 melanoma) | TGI (SK-MEL-28 melanoma) [µM] | TGI (CAKI-1 renal) [µM] | GI50 (OVCAR-4 ovarian) [µM] | GI50 (NCI/ADR-RES ovarian) [µM] | TGI (NCI/ADR-RES ovarian) [µM] | GI50 (A549 NSCLC) [µM] | TGI (A549 NSCLC) [µM] | GI50 (UACC-257 melanoma) [µM] | GI50 (HCT-15 colon) [µM] | GI50 (HOP-92 NSCLC) [µM] | GI50 (UACC-62 melanoma) [µM] | GI50 (SK-MEL-28 melanoma) | GI50 (CAKI-1 renal) [µM] | GI50 (MALME-3M melanoma)
CCCCNC(=O)C1C(=O)N(CCCC)C(=O)/C1=N\N (stereo not given) | > 100 | > 100 | > 100 | > 100 µM | > 100 | > 100 µM | > 100 | > 100 | – | – | – | – | – | – | – | – | – | – | – | –
C=C1C(=O)O[C@H]2C[C@@H]1CC/C(C)=C/CC/C(C)=C/CC[C@@]2(C)O | > 100 | – | > 100 | 71.6 µM | 42.7 | > 100 µM | > 100 | > 100 | > 100 | > 100 | > 100 | > 100 | > 100 | > 100 | 26.4 | 19.5 | 44.1 | 37.2 µM | 34.6 | –
O=C(NC(=O)c1ccccc1[N+](=O)[O-])Nc1ccc(Oc2ncc(Cl)cn2)c([N+](=O)[O-])c1 | > 100 | > 100 | > 100 | > 95.6 µM | – | > 100 µM | – | > 100 | – | – | 3.15 | – | > 100 | – | – | – | – | – | – | –
N#Cc1c(N)n2c(nc1=Nc1ccc(Cl)cc1)sc1cc(Cl)ccc12 | > 100 | > 100 | > 100 | > 100 µM | – | > 100 µM | > 100 | > 100 | 9.82 | 4.69 | 34.8 | – | – | > 100 | 5.47 | – | 2.85 | 5.74 µM and 2.8 µM | 22.4 | 6.35 µM and 14.8 µM
C(=N\Nc1ccccc1)/c1nc2ccccc2nc1/C=N/Nc1ccccc1 | 48.4 | 41.6 | 58.2 | 25.8 µM | 33.2 | 27.3 µM | 31.7 | 21.4 | – | – | – | – | 28.8 | – | – | – | – | – | – | –
COc1cc2c(c(OC)c1OC)-c1ccc(OC)c(=O)cc1[C@@H](NC(C)=O)CC2 | > 100 | – | – | > 100 µM and 25.8 µM and 50.4 µM | – | > 100 µM and > 77.4 µM and 91.7 µM | > 625 | – | – | 0.488 | – | – | > 100 | – | – | – | – | – | – | 4.33 µM and 1.35 µM
O=C(/C(=C/c1ccc([N+](=O)[O-])cc1)SCc1ccc(Cl)cc1)c1ccc(F)cc1 | 13.9 | 12.3 | 26.1 | 4.26 µM | 34 | 8.47 µM | 16.2 | – | 3.11 | 2.78 | 11.2 | 49.5 | > 100 | 11.5 | 1.9 | 10.2 | 2.27 | 4.26 µM | – | 3.22 µM
CCOC(=O)C(N=C(c1ccccc1)c1ccccc1)N(C(=O)OC(C)(C)C)C(=O)OC(C)(C)C (stereo not given) | > 100 | > 100 | > 100 | > 100 µM | 66.6 | > 100 µM | > 100 | > 100 | – | – | – | – | > 100 | – | – | – | – | – | – | –
COc1ccc2c(O)c(/C=C3\N=Nc4ccccc43)oc2c1C[C@@H]1CCNC[C@H]1F | 26.6 | 22.5 | 32 | 28.9 µM | 29.5 | – | – | 25 | 11.4 | 10.5 | 25.9 | 13.5 | 28 | 16.2 | 14.2 | 13.3 | – | – | 12.3 | 3.33 µM
CCOC(=O)Cc1csc(Nc2ccc(OCC)cc2)n1 | > 100 | > 100 | > 100 | > 100 µM | > 100 | – | > 100 | – | – | – | – | – | > 100 | – | – | – | – | – | – | –
Cc1cc(Nc2ncc3c(n2)N(C)C(=O)N(c2cc(NC(=O)c4cccc(C(F)(F)F)c4)ccc2C)C3)n(C)n1 | – | 0.0489 | 0.125 | > 46.4 µM | – | – | 0.15 | 0.0709 | – | 0.97 | > 31.6 | 0.044 | 0.417 | 0.0197 | 0.196 | – | – | 0.02 µM | 0.0182 | < 0.0124 µM
O=c1c2ccccc2nc(/C=C(\O)c2ccncc2)n1-c1ccc(Cl)cc1 | > 100 | > 100 | > 100 | > 100 µM | > 100 | > 100 µM | > 100 | > 100 | – | – | – | – | > 100 | – | – | – | – | – | – | –
O=C1[C@@H]2C(c3ccccc3[N+](=O)[O-])=[N+](c3ccccc3)O[C@@H]2C(=O)N1c1ccc(Cc2ccc(N3C(=O)[C@H]4C(c5ccccc5[N+](=O)[O-])=[N+](c5ccccc5)O[C@H]4C3=O)cc2)cc1 | > 100 | 81.6 | > 100 | > 100 µM | > 100 | > 100 µM | > 100 | > 100 | – | – | – | – | > 100 | – | – | – | – | – | – | –
COc1ccc(Cn2cc3c(c2-c2ccccc2)CCc2cnoc2-3)cc1OC | > 100 | – | > 100 | > 100 µM | > 100 | > 100 µM | > 100 | > 100 | 3.56 | 0.324 | 1.91 | 0.875 | > 100 | 60.4 | 0.522 | 1.98 | 0.581 | 26.3 µM | 0.537 | –
NC1CCCCC1N.O=[Se]([O-])[O-].[Pt+4] (stereo not given) | > 100 | 5.26 | > 64.8 | > 45.5 µM | 82.1 | > 41.8 µM | 32.9 | 45.3 | 2.63 | – | – | 0.48 | > 61.8 | 2.18 | 0.747 | 25.3 | 1.33 | 2.01 µM | 1.08 | 0.986 µM
Nc1nc(N)c(-c2ccccc2)c(C(=O)Nc2ccccc2)n1 | > 100 | > 100 | > 100 | > 100 µM | > 100 | > 100 µM | > 100 | > 100 | – | – | – | – | > 100 | – | – | – | – | – | – | –
O=C(NCc1cccnc1)C1COc2cc(-c3cc(=O)c4ccccc4o3)ccc2O1 (stereo not given) | > 100 | > 100 | > 100 | > 100 µM | > 100 | > 100 µM | > 28.7 | > 84.3 | – | – | – | – | > 100 | – | – | – | – | – | – | –
CONC(C)=O | – | > 100 | > 100 | > 100 µM | – | > 100 µM | > 100 | > 100 | – | – | > 100 | – | > 100 | – | – | – | – | – | – | –
